How the values were obtained:
human BACE1 = human BACE1 (Homo sapiens (Human), UniProt P56817); test: BACE1 binding assay (SPA-based radioligand binding); settings: pH 4.5, Ki calculated from IC50
Method: The binding assay was performed as SPA-based assay using a biotinylated form of human BACE1 recombinantly expressed and subsequently purified from Freestyle HEK293 cells. The binding assay was run in a 50 mM sodium acetate buffer, pH 4.5 containing 50 mM NaCl and 0.03% Tween-20 in white clear bottom 384 plates (Corning #3653). 10 nM (final concentration) radioligand ([^3H]—N-((1S,2R)-1-benzyl-3-cyclopropylamino-2-hydroxy-propyl)-5-(methanesulfonyl-methyl-amino)-N—((R)-1-phenyl-ethyl)-isophthalamide) (TRQ11569 purchased from GE Healthcare) was mixed with test compound at a given concentration, 6 nM (final concentration) human BACE1 and 25 μg Streptavidin coated PVT core SPA beads (RPNQ0007, GE Healthcare Life Sciences) in a total volume of 40 μl. Several concentrations of each test compound were tested in the assay for IC50 determination. The plates were incubated for one hour at room temperature and counted in a Wallac Trilux counter. Total and non-specific binding were determined using buffer and 1 μM (final concentration) of the high affinity BACE1 reference inhibitor (S)-6-[3-chloro-5-(5-prop-1-ynyl-pyridin-3-yl)-thiophen-2-yl]-2-imino-3,6-dimethyl-tetrahydro-pyrimidin-4-one, respectively. For each test compound, a IC50 value (the concentration mediating 50% inhibition of the specific binding of the radioligand) was determined from concentration-response curve and used to calculate the Ki from the equation Ki=IC50/(1+L/Kd), where L and Kd are the final concentration of the radioligand used in the assay and the dissociation constant of the radioligand, respectively. The Kd of the radioligand was determined from saturation binding experiments.

Aβ40 = test: Assessment of Aβ levels in rat brain and plasma following BACE1 inhibition (Aβ40 ELISA); type: in vivo; settings: 3 hours post dose, vs vehicle
Method: Young adult Male Sprague Dawley rats of approximately 250 g weight were purchased from Charles River and received 0-30 mg/kg of vehicle (10% HP betaCD+1M MeSO4, pH 2.5) or test compounds (dissolved in vehicle) only by oral gavage (p.o). The compounds are dosed at a volume of 5 ml/kg. Cohorts of 5-10 animals were established for each treatment condition.
At T=180 minutes after initial dosing the animals were stunned and decapitated with a guillotine. Trunk-blood was sampled in EDTA coated tubes after decapitation of the animal. The blood was centrifuged at 2200 G at 4° C. for 15 minutes and the plasma was collected and frozen at −80° C. The blood was aliquoted for Aβ ELISA and DMPK analysis Immediately following sacrifice, the brain was extracted and split into 2 halves. The right hemibrains were snap frozen on dry ice and stored at −80° C. The left half was dissected; with the front forebrain taken for Aβ ELISA and the remainder used for DMPK analysis. These samples were also snap frozen on dry ice and stored at −80° C. until use for analysis.
The cortex samples were thawed slightly on wet ice before they were homogenized with a small volume dispersing instrument (T10 basic ULTRA-TURRAX®) which was set at speed 5 for approximately 5-7 sec. The tissue was processed in a 10 times volume of the weight, for example 100 mg of tissue was homogenized in 1000 μL of Homogenization buffer. Homogenization buffer: 50 ml Milli Q water+50 nM NaCl+0.2% Diethylamin (DEA)+1 tablet of Complete Protease inhibitor cocktail+1 nM 4-(2-aminoethyl) benzenesulfonyl fluoride hydrochloride irreversible serine protease inhibitor (AEBSF).
After homogenization 450 μL aliquots of the samples are collected into a 1.5 ml Eppendorf tube and placed on wet ice, 0.5% NP-40 (50 ul) was added to all samples and then they were incubated on ice for 30 min. After which all samples were sonicated using an Ultrasonic homogenizer with 20 kHz homogeneous sound (SONOPLUS HD2070, Bandelin Electronic) 10 pulse set at 12-13% power to extract all the Aβ species. The samples were then centrifuged (Ole Dich 157 MPRF Micro centrifuge) at 20000 G for 20 minutes at 4° C. After centrifugation 285 μL of the supernatant was pipetted into 600 μL microtubes tubes and neutralized with 15 μL of 1M Tris-HCL buffer.
WAKO 294-62501 Human/Rat Abeta amyloid (40) kit was used for all ELISA analyses. 30 μL plasma samples or 30 μL of the cortex supernatants generated as described above were placed in 600 μL microtubes tubes on wet ice. To this 30 μL of 8M Urea (AppliChem A1049, 9025) are added to generate a 2-fold dilution. Both plasma and cortex supernatants are incubated on ice for 30 min. Standard rows were prepared from the standard peptide stock provided in the kit and standard diluent containing 1.6M Urea (200 μL 8M Urea+800 μL of standard diluent) and 0.8M Urea (400 μL 8M Urea+3600 μL Standard diluent). A serial 2-fold dilution of Aβ40 from 100 pmol/ml to 0 pmol/L was prepared for the assay.
After incubation with urea, all samples were further diluted by addition of 5 times standard diluent from the Kit. This was done by adding 240 μL Standard Diluent to 60 μL sample/urea mixture, which was then mixed well. 100 μL of each diluted sample was pipetted into designated wells of the ELISA plate in duplicates. The plate was then covered and incubated overnight at 4° C. The following day, the ELISA kit was brought to room temperature before use. The incubated plate was washed 5 times with the 20× washing solution diluted in Milli Q water. 100 μL HRP-conjugate was applied to each well, and the plate was covered and incubates at 4° C. for 1 hr. The wash was repeated again for 5 times. 100 μL 3,3′,5,5′-Tetramethylbenzidine (TMB) solution was applied to each well and the plate was covered and incubated in the dark at room temperature for 30 minutes. […]

P-gp (MDR1) = test: MDCK-MDR1 assay (permeability/efflux); type: in vitro ADME; settings: dog, Papp BA/Papp AB, 60-minute incubation, Pgp substrate when ≧2
Method: The permeability of the test compounds was assessed in MDCK-MDR1 cells that were cultured to confluency (4-6 days) in a 96 transwell plate. Test compounds were diluted with the transport buffer (HBSS+1% BSA) to a concentration of 0.5 μM and applied to the apical or basolateral side of the cell monolayer. Permeation of the test compounds from A to B direction or B to A direction was determined in triplicate over a 60-minute incubation time at 37° C. and 5% CO2 with a relative humidity of 95%. Test compounds were quantified by LC-MS/MS analysis based on the peaks area ratios of analyte/IS in both the receiver and donor wells of the transwell plate.
The apparent permeability coefficient Papp (cm/s) was calculated using the equation: Papp=(dCr/dt)×Vr/(A×C0)
Where dCr/dt is the cumulative concentration of compound in the receiver chamber as a function of time (μM/s); Vr is the solution volume in the receiver chamber (0.05 mL on the apical side; 0.25 mL on the basolateral side); A is the surface area for the transport, i.e. 0.0804 cm^2 for the area of the monolayer; CO is the initial concentration in the donor chamber (μM).
Compounds are classified Pgp substrates when efflux ratio (Papp BA/Papp AB) is ≧2.

Sequence of human BACE1 (P56817 46-501): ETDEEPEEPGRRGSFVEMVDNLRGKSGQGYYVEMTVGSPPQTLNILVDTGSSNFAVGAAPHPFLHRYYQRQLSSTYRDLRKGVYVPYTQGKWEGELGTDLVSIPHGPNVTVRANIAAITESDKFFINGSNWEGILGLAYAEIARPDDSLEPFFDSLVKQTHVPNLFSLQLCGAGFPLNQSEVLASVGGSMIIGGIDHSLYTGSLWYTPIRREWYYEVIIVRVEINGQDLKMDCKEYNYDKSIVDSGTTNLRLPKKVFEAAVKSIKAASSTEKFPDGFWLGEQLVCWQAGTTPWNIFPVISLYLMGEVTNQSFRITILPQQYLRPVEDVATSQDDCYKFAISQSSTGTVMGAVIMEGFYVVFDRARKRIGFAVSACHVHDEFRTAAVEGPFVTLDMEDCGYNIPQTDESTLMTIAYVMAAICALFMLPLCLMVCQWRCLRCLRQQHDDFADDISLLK

SMILES | Ki (human BACE1) [nM] | Aβ40 reduction (Aβ40; brain, 10 mg/kg p.o.) [%] | Aβ40 reduction (Aβ40; brain, 30 mg/kg p.o.) [%] | Aβ40 reduction (Aβ40; plasma, 10 mg/kg p.o.) [%] | Aβ40 reduction (Aβ40; plasma, 30 mg/kg p.o.) [%] | efflux ratio at 60 min, 0.5 μM (P-gp (MDR1))
COc1cnc(C(=O)Nc2ccc(F)c([C@@]3(C(F)F)N=C(N)CCC3(F)F)c2)cn1 [Compound 3, (S)—N-(3-(6-amino-2-(difluoromethyl)-3,3-difluoro-2,3,4,5-tetrahydropyridin-2-yl)-4-fluorophenyl)-5-methoxypyrazine-2-carboxamide] | 8.5 | 24 | 38 | 39 | 42 | 1.22
COc1ccc(C(=O)Nc2ccc(F)c([C@@]3(C(F)F)N=C(N)CCC3(F)F)c2)nc1 [Compound 5, (S)—N-(3-(6-amino-2-(difluoromethyl)-3,3-difluoro-2,3,4,5-tetrahydropyridin-2-yl)-4-fluorophenyl)-5-methoxypicolinamide] | 6.7 | 5 | 36 | 40 | 49 | 0.99

From patent publication US9346797B1, “2-amino 6-(difluoromethyl)-5,5-difluoro-6-phenyl-3,4,5,6-tetrahydropyridines as BACE1 inhibitors” (H. Lundbeck A/S, priority 2014, dated 2016)
